Data on ten compounds can be found in ChEMBL document CHEMBL4393710, “Discovery of Dioxino[2,3-f]quinazoline derivative VEGFR-2 inhibitors exerting significant antipro-liferative activity in HUVECs and mice” (Eur J Med Chem, 2019).

SMILES strings stand for the structures.

The subject of one series is L02. In words: Antiproliferative activity against human LO2 cells incubated for 72 hrs by CCK8 assay. The settings on record: L02, 72 h.
For the next series, the system named is HEK293. Briefly: Antiproliferative activity against HEK293 cells incubated for 72 hrs by CCK8 assay. As to conditions: Homo sapiens, HEK293, 72 h.
In the next series the test system is HUVEC. Briefly: Inhibition of VEGF-induced cell proliferation of HUVEC incubated for 72 hrs by CCK8 assay. The settings on record: Homo sapiens.
Series [1] addresses Vascular endothelial growth factor receptor 2 (Homo sapiens, UniProt P35968). In words: Inhibition of human N-terminal GST-tagged VEGFR2 cytoplasmic domain (790 to 1356 residues) expressed in baculovirus expression system using Ulight-JAK-1(Tyr1023) peptide as substrate preincubated for 30 mins followed by substrate addition and measured after 60 mins by spectrometric method.

For series [2], the system named is SMMC-7721. Briefly: Antitumor activity against human SMMC7721 cells xenografted in nude mouse assessed as tumor growth inhibition at 60 mg/kg, po administered daily for 6 days and measured on day 9 relative to control. The format is functional. The settings on record: SMMC-7721, po, read-out: TGI. Background: Xenograft models place foreign cells or tissue in a host animal.

Series [3] is described as follows: Toxicity in nude mouse xenografted with human SMMC7721 cells assessed as change in body weight at 60 mg/kg, po administered daily for 6 days and measured every 3 days. The format is organism-based. The settings on record: in vivo.
The nature of series [4]: Toxicity in nude mouse xenografted with human SMMC7721 cells assessed as side effect at 60 mg/kg, po administered daily for 6 days. The format is organism-based. As to conditions: in vivo, 144 h.
Series [5] is described as follows: Toxicity in nude mouse xenografted with human SMMC7721 cells assessed as mortality at 60 mg/kg, po administered daily for 6 days. As to conditions: in vivo, 144 h. The format is organism-based.
Series [6] relates to SMMC-7721. In words: Antitumor activity against human SMMC7721 cells xenografted in nude mouse assessed as tumor volume at 60 mg/kg, po administered daily for 6 days and measured on day 6 (reference value: 1990.2 +/- 179.2 mm3). The format is functional.
The test system of series [7] is SMMC-7721. Briefly: Antiproliferative activity against human SMMC7721 cells incubated for 72 hrs by CCK8 assay. Format: functional, cell-based. As to conditions: SMMC-7721, 72 h.
The test system of series [8] is SMMC-7721. In words: Antitumor activity against human SMMC7721 cells xenografted in nude mouse assessed as tumor volume at 60 mg/kg, po administered daily for 6 days and measured on day 9 (reference value: 3005.8 +/- 225.3 mm3). The format is functional.
The test system of series [9] is SMMC-7721. In words: Antitumor activity against human SMMC7721 cells xenografted in nude mouse assessed as tumor growth inhibition at 60 mg/kg, po administered daily for 6 days and measured on day 6 relative to control. Format: functional. The settings on record: SMMC-7721, po, 144 h, read-out: TGI.

Vascular endothelial growth factor receptor 2, sequence (P35968 whole entry, the tested form may be a part): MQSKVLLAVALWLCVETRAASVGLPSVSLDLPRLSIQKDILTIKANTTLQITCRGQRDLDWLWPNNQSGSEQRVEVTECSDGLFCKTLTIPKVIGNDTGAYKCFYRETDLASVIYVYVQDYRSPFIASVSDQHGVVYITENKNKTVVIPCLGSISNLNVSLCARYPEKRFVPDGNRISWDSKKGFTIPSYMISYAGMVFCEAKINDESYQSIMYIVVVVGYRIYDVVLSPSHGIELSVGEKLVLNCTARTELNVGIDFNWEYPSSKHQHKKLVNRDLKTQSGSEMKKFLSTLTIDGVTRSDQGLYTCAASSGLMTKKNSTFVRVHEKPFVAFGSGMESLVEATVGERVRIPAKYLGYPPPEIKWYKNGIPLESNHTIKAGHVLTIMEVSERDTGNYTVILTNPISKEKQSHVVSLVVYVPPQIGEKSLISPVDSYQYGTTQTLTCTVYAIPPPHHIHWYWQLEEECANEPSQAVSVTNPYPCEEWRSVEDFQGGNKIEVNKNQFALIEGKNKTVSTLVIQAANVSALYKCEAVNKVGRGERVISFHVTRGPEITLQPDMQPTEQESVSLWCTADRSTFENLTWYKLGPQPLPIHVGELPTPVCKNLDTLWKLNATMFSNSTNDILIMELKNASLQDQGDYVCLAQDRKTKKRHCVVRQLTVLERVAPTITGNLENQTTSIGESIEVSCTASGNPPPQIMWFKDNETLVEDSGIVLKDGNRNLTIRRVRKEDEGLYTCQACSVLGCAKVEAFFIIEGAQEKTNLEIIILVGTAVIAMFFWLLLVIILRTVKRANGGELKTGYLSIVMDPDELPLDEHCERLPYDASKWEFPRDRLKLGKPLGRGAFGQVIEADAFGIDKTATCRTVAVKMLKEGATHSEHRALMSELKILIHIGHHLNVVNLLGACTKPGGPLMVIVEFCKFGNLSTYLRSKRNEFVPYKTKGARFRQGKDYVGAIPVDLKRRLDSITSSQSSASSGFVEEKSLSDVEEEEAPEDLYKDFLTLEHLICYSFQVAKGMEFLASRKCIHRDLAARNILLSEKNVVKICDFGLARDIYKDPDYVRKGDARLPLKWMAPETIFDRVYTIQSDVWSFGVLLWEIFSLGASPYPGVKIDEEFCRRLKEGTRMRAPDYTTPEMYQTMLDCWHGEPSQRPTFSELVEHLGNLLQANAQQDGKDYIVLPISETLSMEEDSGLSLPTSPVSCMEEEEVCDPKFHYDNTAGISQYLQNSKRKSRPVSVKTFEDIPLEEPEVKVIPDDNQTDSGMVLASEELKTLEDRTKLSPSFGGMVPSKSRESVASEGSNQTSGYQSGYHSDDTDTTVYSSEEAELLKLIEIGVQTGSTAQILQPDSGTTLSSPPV

Take `CC(C)Oc1cc2ncnc(Oc3ccc(NC(=O)Nc4cc(C(F)(F)F)ccc4F)cc3)c2c2c1OCCO2`: the IC50 with L02 turned out to be 5180 nM; with HEK293, 3560 nM; in the series on HUVEC, 4.2 nM.
As to `O=C(Nc1ccc(Oc2ncnc3cc(OCCCN4CCOCC4)c4c(c23)OCCO4)cc1)Nc1cc(C(F)(F)F)ccc1F`, the IC50 was 1010 nM with L02, 994 nM in the series on HEK293, 1.5 nM in [1] and 2.3 nM in the series on HUVEC.
Regarding `O=C(Nc1ccc(Oc2ncnc3cc(OCCCN4CCOCC4)c4c(c23)OCCO4)cc1F)Nc1cc(C(F)(F)F)ccc1F`, the IC50 came out at 1510 nM in the series with L02, 1160 nM in the series on HEK293 and 4.7 nM in the series with HUVEC.
With `COc1cc2ncnc(Oc3ccc(NC(=O)Nc4cc(C(F)(F)F)ccc4F)cc3)c2c2c1OCCO2`, the IC50 in the series on L02 worked out at 2190 nM; in the series on HEK293, 2880 nM; in series [1], 1.5 nM; in the series on HUVEC it was 1.7 nM.
For the compound `COc1cc2ncnc(Oc3ccc(NC(=O)Nc4ccc(Cl)c(C(F)(F)F)c4)cc3)c2c2c1OCCO2`, the inhibition in vivo at 60 mg/kg in the series on SMMC-7721 [2] worked out at 118%; with SMMC-7721 [9], 133%. The Activity entry in series [3] was “Toxic”; in [4], “Non-Toxic”; in series [5], “Non-Toxic”; with SMMC-7721 [6], 14 mm3; with SMMC-7721 [8] it was 63.3 mm3. Moreover, the IC50 with L02 worked out at 3860 nM; in the series on HEK293 it was 7540 nM; in series [1] it was 2.4 nM; in the series with SMMC-7721 [7], 376 nM; in the series on HUVEC it was 1.2 nM.
Consider `O=C(Nc1ccc(Oc2ncnc3cc(OCCCN4CCOCC4)c4c(c23)OCCO4)c(F)c1)Nc1cc(C(F)(F)F)ccc1F`, for which the IC50 was 801 nM with L02, 700 nM with HEK293, 3.4 nM in series [1] and 1.5 nM in the series on HUVEC.
For `COCCOc1cc2ncnc(Oc3ccc(NC(=O)Nc4cc(C(F)(F)F)ccc4F)cc3)c2c2c1OCCO2`, the IC50 in the series on L02 amounted to 1160 nM; in the series on HEK293 it was 894 nM; in [1], 1.7 nM; with HUVEC it was 1.1 nM.
Regarding `COc1cccc(NC(=O)Nc2ccc(Oc3ncnc4cc(OC)c5c(c34)OCCO5)cc2)c1`, the figures for the IC50 in the series with L02, with HEK293 and in the series on HUVEC were 34300 nM, above 25000 nM and 3 nM, respectively.
Take `O=C(Nc1cc(C(F)(F)F)ccc1F)Nc1ccc(Oc2ncnc3cc(OCCCN4CCOCC4)c4c(c23)OCCO4)cc1Cl`: the IC50 was 5980 nM with L02, 5180 nM in the series with HEK293 and 4 nM in the series on HUVEC.
On to `COc1cc2nccc(Oc3ccc(NC(=O)NC4CC4)c(Cl)c3)c2cc1C(N)=O` [LENVATINIB], for which it took 3 nM to reach half-maximal inhibition with HUVEC (IC50).

Usually IC50 stands for the midpoint of a concentration-inhibition curve.
